The source of these data is patent US4362728A, “Haloguanidine compounds, pharmaceutical compositions and methods of use” (ICI Americas Inc., priority 1979, dated 1982).

In this series the test system is male Swiss-Webster mice. The series can be described thus: intraperitoneal toxicity observation in mice. It counts as in vivo. The conditions noted are these: 50 mg./kg. intraperitoneal in 10% w/v dimethylsulphoxide in saline; observed four hours and checked 24 hours after dosing.

For `CNC(=C[N+](=O)[O-])NCCCCc1csc(N=C(N)NCC(F)(F)F)n1` [Example 9], the toxic symptoms entry is listed as “No toxic symptoms”.

On to `CNC(=NS(C)(=O)=O)NCCCCc1csc(NC(N)=NCC(F)(F)F)n1` [Example 11, 2-[2-(2,2,2-trifluoroethyl)guanidino]-4-[4-(2-methylsulphonyl-3-methylguanidino)butyl]thiazole], for which the toxic symptoms entry is recorded as “No toxic symptoms”.
